US20210353648A1, “GRAPIPRANT UNIT DOSAGE FORMS” (Arrys Therapeutics, Inc., priority 2018, published 2021)
Like-named read-outs stand apart in the source and are kept apart here.

Columns and labels:
[1] = Phase 1 multiple ascending dose study of grapiprant tablets: urine pharmacokinetics; assay type: in vivo, human; settings: for CLR/Fu: mean; for AE / AE/Dose: urine; for AE / AE/Dose / CL renal: mean (SD); for CL renal: human, urine and serum
Method: Urine pharmacokinetic parameters can be used to assess the amount of parent drug excreted unchanged in the urine. The urine pharmacokinetic parameters can be calculated under the assumption that the amount of grapiprant excreted unchanged in the urine over the dosing interval was at steady state on the last day of dosing for the 14 day and 17 day oral administration described herein. As used herein, the term “AE” refers to the amount of parent drug excreted from 0-12 hours post dose on day 14 or day 17, calculated by (Urine Grapiprant Concentration×Urine Volume). As used herein, the term “AE/Dose” refers to percent of Dose renally excreted unchanged on day 14 or day 17, calculated by (AE/Dose)×100. As used herein, the term “CLR” refers to renal clearance on day 14 or day 17, calculated by (AE/AUCτ). As used herein, the term “CLR/Fu” refers to renal clearance of unbound drug, calculated by (CLR/Fu), where the fraction of drug in the serum not bound to proteins (Fu) is determined from in vitro human serum protein binding data.
Serial urine samples for PK evaluations of grapiprant were collected on Day 14 for up to 48 hours postdose (Cohorts 1-3) or on Day 17 for up to 24 hours postdose (Cohorts 5 and 6).
Grapiprant was extracted from the urine by protein precipitation, and then analyzed by a validated LC/MS/MS method. The dynamic range of the assay was 1.00 to 600 μg/mL. The following parameters were calculated under the assumption that the amount of grapiprant excreted unchanged in the urine over the dosing interval was at steady state on the 14th day of dosing: amount of parent drug excreted (AE), percent of dose renally excreted unchanged (AE/dose), renal clearance (CLR), and renal clearance of unbound drug (CLR/Fu).

[2] = Phase 1 single ascending dose study of grapiprant OPC: pharmacokinetics; assay type: in vivo, human; settings: for AUC(0-t) / Cmax / AUC(0-inf) / Tmax / half-life: human, oral, serum
Method: Eligible subjects were to be enrolled into 8 sequential cohorts, corresponding to the planned dose levels of 1 mg, 3 mg, 10 mg, 30 mg, 100 mg, 300 mg, 600 mg, and 1000 mg. […] After determining a maximum tolerated dose (MTD), or after completing the highest dose cohort if a MTD was not determined, Cohort 11 would be enrolled to increase the number of subjects evaluated at the MTD (or the highest dose).
In each dosing period, subjects were confined to the Clinical Research Unit (CRU) for approximately 60 hours (from approximately 36 hours predose through 24 hours postdose), and were instructed to return to the study site at 48 hours postdose for collection of blood samples for safety and pharmacokinetic evaluations. Subjects had triplicate ECG measurements made at select time-points on Day 0 (to provide a time-matched baseline) and through 24 hours postdose. Continuous cardiac monitoring by telemetry was performed for 12 hours postdose (or up to 24 hours, if warranted, based on the pharmacokinetic data). Creatine phosphokinase (CPK; total CPK and CPK-MB isoenzyme) and troponin I levels were monitored predose and at 12 and 24 hours postdose. In each dosing period, blood samples were collected predose and at 0.5, 1, 1.5, 2, 2.5, 3, 4, 6, 8, 12, 16, 24, and 48 hours postdose for pharmacokinetic evaluation. Fecal occult blood was monitored predose and through 48 hours postdose. Urine was collected through 24 hours postdose for exploratory biotransformation analyses. Since grapiprant may be a substrate of efflux transporters, genotyping for P-gp, an efflux transporter, was also planned for this study.
Pharmacokinetics: The maximum observed serum concentration (Cmax) of grapiprant was estimated directly from raw serum concentration-time data with Tmax defined as the time of the first occurrence of Cmax. The apparent terminal elimination rate constant (kel) was estimated using least-squares regression analysis of the serum concentration-time data obtained during the terminal log-linear phase. The apparent terminal half-life (T½) was calculated as In 2/kel. Areas under the serum concentration-time curve from time 0 to the last time (Tlast) with a quantifiable concentration [AUC(Tlast)] were estimated using linear/log trapezoidal approximation. Areas under the serum concentration-time curve from time Tlast to infinity [AUC(Tlast-inf)] were estimated as Cpest/kel, where Cpest represented the estimated concentration at time Tlast based on the aforementioned regression analysis. Areas under the serum concentration-time curve from time 0 to infinity [AUC(inf)] were estimated as the sum of AUC(Tlast) and AUC(Tlast-inf). […] Individual serum concentrations of grapiprant were summarized in tabular and graphical form. Concentrations that were determined to be below the lower limit of quantification were assumed to be equal to zero for the pharmacokinetic analyses and mean concentration-time plots.
The 600 mg dose was studied in 2 separate cohorts. The second of these two cohorts was conducted to confirm safety assessments at this dose strength. For the pharmacokinetic analysis, pharmacokinetic parameters of both cohorts were pooled together and analyzed as a single group.

[3] = 50 mg BID (n = 8), after 14 days of multiple oral dosing, healthy adults
[4] = 150 mg BID (n = 9), after 14 days of multiple oral dosing, healthy adults
[5] = 250 mg BID (Elderly) (n = 14), after 14 days of multiple oral dosing (Day 17)
[6] = 300 mg BID (n = 9), after 14 days of multiple oral dosing, healthy adults
[7] = single 1 mg dose as OPC, fasted, healthy adults, mean
[8] = single 3 mg dose as OPC, fasted, healthy adults, mean
[9] = single 10 mg dose as OPC, fasted, healthy adults, mean
[10] = single 30 mg dose as OPC, fasted, healthy adults, mean
[11] = single 100 mg dose as OPC, fasted, healthy adults, mean
[12] = single 300 mg dose as OPC, fasted, healthy adults, mean
[13] = single 600 mg dose as OPC, fasted, healthy adults, mean
[14] = single 1000 mg dose as OPC, fasted, healthy adults, mean
[15] = single 1500 mg dose as OPC, fasted, healthy adults, mean
[16] = single 2000 mg dose as OPC, fasted, healthy adults, mean

## CCc1nc2c(C)nc(C)cc2n1-c1ccc(CCNC(=O)NS(=O)(=O)c2ccc(C)cc2)cc1 [Grapiprant, N-((4-(2-ethyl-4,6-dimethyl-1H-imidazo[4,5-c]pyridin-1-yl)phenethyl)carbamoyl)-4-methylbenzenesulfonamide]
[1]; [3]
  CLR/Fu: 6120 mL/min
  AE: 10.6 (3.18) mg
  AE/Dose: 21.2 (6.37) %
  CL renal: 56.3 mL/min
[1]; [4]
  CLR/Fu: 6000 mL/min
  AE: 33.3 (11.2) mg
  AE/Dose: 22.2 (7.48) %
  CL renal: 55.2 mL/min
[1]; [5]
  CLR/Fu: 2720 mL/min
  AE: 57.9 (18.7) mg
  AE/Dose: 23.2 (7.48) %
  CL renal: 25 mL/min
[1]; [6]
  CLR/Fu: 4840 mL/min
  AE: 82.4 (27.1) mg
  AE/Dose: 27.5 (9.05) %
  CL renal: 44.5 mL/min
[1]; healthy and elderly subjects
  renal clearance corrected for protein binding compared with GFR: much greater than the glomerular filtration rate
[2]; between the 100 mg and 600 mg dose levels, OPC, fasted
  increase of mean serum exposure parameters with dose: greater than dose-proportional increases
[2]; [7]
  AUC(0-t): 59.1 ng·h/mL
  Cmax: 6.59 ng/mL
[2]; [8]
  AUC(0-inf): 260 ng·h/mL
  AUC(0-t): 246 ng·h/mL
  Cmax: 23.1 ng/mL
[2]; [9]
  AUC(0-inf): 917 ng·h/mL
  AUC(0-t): 901 ng·h/mL
  Cmax: 110 ng/mL
[2]; [10]
  AUC(0-inf): 2150 ng·h/mL
  AUC(0-t): 2120 ng·h/mL
  Cmax: 262 ng/mL
[2]; [11]
  AUC(0-inf): 7220 ng·h/mL
  AUC(0-t): 7170 ng·h/mL
  Cmax: 1440 ng/mL
[2]; [12]
  AUC(0-inf): 31300 ng·h/mL
  AUC(0-t): 31200 ng·h/mL
  Cmax: 12000 ng/mL
[2]; [13]
  AUC(0-inf): 92500 ng·h/mL
  AUC(0-t): 92200 ng·h/mL
  Cmax: 45000 ng/mL
[2]; [14]
  AUC(0-inf): 175000 ng·h/mL
  AUC(0-t): 174000 ng·h/mL
  Cmax: 64300 ng/mL
[2]; [15]
  AUC(0-inf): 242000 ng·h/mL
  AUC(0-t): 242000 ng·h/mL
  Cmax: 83800 ng/mL
[2]; [16]
  AUC(0-inf): 479000 ng·h/mL
  AUC(0-t): 478000 ng·h/mL
  Cmax: 134000 ng/mL
[2]; 1 mg, single 1 mg dose as OPC, fasted, healthy adults, median, read-out: Tmax
  Tmax: 2.5 h
[2]; 3 mg, single 3 mg dose as OPC, fasted, healthy adults, mean, read-out: T½ (converted)
  half-life: 5.34 h
[2]; 3 mg, single 3 mg dose as OPC, fasted, healthy adults, median, read-out: Tmax
  Tmax: 3 h
[2]; 10 mg, single 10 mg dose as OPC, fasted, healthy adults, mean, read-out: T½ (converted)
  half-life: 5.1 h
[2]; 10 mg, single 10 mg dose as OPC, fasted, healthy adults, median, read-out: Tmax
  Tmax: 2 h
[2]; 30 mg, cohorts with clear bi-exponential decline (30 mg and above), read-out: mean terminal phase T1/2
  half-life: 6.14 to 9.41 h
[2]; 30 mg, single 30 mg dose as OPC, fasted, healthy adults, mean, read-out: T½ (converted)
  half-life: 6.14 h
[2]; 30 mg, single 30 mg dose as OPC, fasted, healthy adults, median, read-out: Tmax
  Tmax: 1 h
[2]; 100 mg, doses of 100 mg and above, OPC, fasted, read-out: individual Tmax values
  Tmax: 0.5 to 1 h
[2]; 100 mg, single 100 mg dose as OPC, fasted, healthy adults, mean, read-out: T½ (converted)
  half-life: 6.91 h
[2]; 100 mg, single 100 mg dose as OPC, fasted, healthy adults, median, read-out: Tmax
  Tmax: 0.75 h
[2]; 300 mg, single 300 mg dose as OPC, fasted, healthy adults, mean, read-out: T½ (converted)
  half-life: 7.98 h
[2]; 300 mg, single 300 mg dose as OPC, fasted, healthy adults, median, read-out: Tmax
  Tmax: 0.75 h
[2]; 600 mg, single 600 mg dose as OPC, fasted, healthy adults, mean, read-out: T½ (converted)
  half-life: 8.03 h
[2]; 600 mg, single 600 mg dose as OPC, fasted, healthy adults, median, read-out: Tmax
  Tmax: 0.5 h
[2]; 1000 mg, single 1000 mg dose as OPC, fasted, healthy adults, mean, read-out: T½ (converted)
  half-life: 9.41 h
[2]; 1000 mg, single 1000 mg dose as OPC, fasted, healthy adults, median, read-out: Tmax
  Tmax: 1 h
[2]; 1500 mg, single 1500 mg dose as OPC, fasted, healthy adults, mean, read-out: T½ (converted)
  half-life: 8.13 h
[2]; 1500 mg, single 1500 mg dose as OPC, fasted, healthy adults, median, read-out: Tmax
  Tmax: 0.75 h
[2]; 2000 mg, single 2000 mg dose as OPC, fasted, healthy adults, mean, read-out: T½ (converted)
  half-life: 8.25 h
[2]; 2000 mg, single 2000 mg dose as OPC, fasted, healthy adults, median, read-out: Tmax
  Tmax: 1 h
[2]; across the dose groups, 1 mg to 2000 mg OPC, fasted, read-out: median Tmax estimates
  Tmax: 0.5 to 3 h
[2]; over the range of doses studied, OPC, fasted, read-out: mean terminal phase T1/2
  half-life: 5.1 to 9.41 h
[2]; single oral dose of OPC formulation, about 1 mg to 2000 mg
  serum concentration-time profile: rapid absorption followed by a bi-exponential decline in serum concentration
